Measurements as given in patent publication EP0071374A1, “Nitrosourea derivatives having anti-tumour and anti-bacterial activity” (KUREHA KAGAKU KOGYO KABUSHIKI KAISHA, priority 1981, dated 1983).

Tests used:
L-1210 leukemia = assay: Anti-tumour effect against L-1210 leukemia on mouse; format: in vivo; conditions: T/C x 100 of average survival days; dose 10 mg/kg intraperitoneally once a day for 5 days, starting 24 hours after transplantation of 1 x 10^5 cells/animal
Protocol: Anti-tumour effect against L-1210 leukemia on mouse: • The successively cultured L-1210 leukemia cells in the ascites of a mouse were transplanted intraperitoneally to a group of the mouse at a rate of 1 x 10^5 cells/animal, and after 24 hours of the transplantation, a solution of each of the present compounds dissolved in an aqueous physiological saline solution was intraperitoneally administered to the group of the mouse once a day for 5 days running. By observing the state of the mice, the average survival days of the administered mice (T) and those of the control group (C) were obtained to calculate the prolongation ratio of the mouse's life (T/C x 100).

Escherichia coli = assay: Antibacterial activity in vitro, agar plate dilution; format: cell-based; design: key: + means the degree of inhibition of the growth of E. Coli; the larger the number of +, the larger the inhibition; ++: + means the degree of inhibition of the growth of E. Coli; the larger the number of +, the larger the inhibition; +++: + means the degree of inhibition of the growth of E. Coli; the larger the number of +, the larger the inhibition; - means that no inhibition of the growth of E. coli was observed; conditions: 18 hours at 37°C, Heart infusion agar
Protocol: Antibacterial activity: • i) A series of 2 times dilution of aqueous solution of each of the present compounds were prepared, and a plate culture medium was prepared by mixing each series with Heart infusion agar culture medium. A strain of Escherichia coli cultured in trypto-soy bouillon at 37°C for 18 hours was inoculated on the thus prepared culture medium, and after culturing for 18 hours at 37°C, the degree of proliferation of the inoculated bacteria was observed, the inoculum being a plutinum loop-full.

[1] = Side effects: nephrotoxicity (albuminurea); format: in vivo, JCL-ICR mouse; conditions: orally 10 mg/kg once a day for 5 days; for Nephrotoxicity: albuminurea
Protocol: Side effects: • The side effects of the present compounds were examined using JCL-ICR mouse as the experimental animal.
Each of the present compounds was orally administered to a group of the mouse at a daily dose rate of 10 mg/kg once a day for 5 days running, the same procedure being carried out on the other group of the mouse by administering BCNU at the same rate.

V-7 tumour = assay: Anti-tumour effect against V-7 tumour on a rabbit; format: in vivo; conditions: survival days vs not-administered control rabbits; dose 10 mg/kg on the 7th day and 11th day of the transplantation
Protocol: Anti-tumour effect against V-7 tumour on a rabbit: • The cancer cells prepared by extirpating the solid tumour transplated and proliferated in the femoral part of a rabbit, cutting finely and having passed through stainless steel mesh of Tyler standard mesh of ? 200 were transplanted to the thinner muscle of the femoral part of a rabbit by using an injector at a rate of 1.5 x 10^7 cells/animal. On the 7th day and llth day of the transplantation, the present compound was administered to the transplanted rabbit. The prolongation ratio of the rabbit was calculated by the comparison of the survival days of the administered rabbits and the not-administered control rabbits.

Solubility in water = format: physicochemical

CC(NC(=O)N(CCCl)N=O)C(O)CO (centres unmarked) [3-[3-(2-Chloroethyl)-3-nitrosoureido]-1,2-butanediol]
Prolongation ratio (L-1210 leukemia): 430% | degree of inhibition of the growth of E. coli (Escherichia coli; Diluted concentration 1/2): ++ | degree of inhibition of the growth of E. coli (Escherichia coli; Diluted concentration 1/4): + | degree of inhibition of the growth of E. coli (Escherichia coli; Diluted concentration 1/8): + | degree of inhibition of the growth of E. coli (Escherichia coli; Diluted concentration 1): +++ | Nephrotoxicity [1]: + (+ means that albuminurea was observed in one to two animals of the total ten animals.) | Prolongation ratio (V-7 tumour): 210% | Solubility in Water (Solubility in water): good

CCC(CO)(CO)NC(=O)N(CCCl)N=O [2-Ethyl-2-[3-(2-chloroethyl)-3-nitrosoureido]-1,3-propanediol]
Prolongation ratio (L-1210 leukemia): 405% | degree of inhibition of the growth of E. coli (Escherichia coli; Diluted concentration 1/2): ++ | degree of inhibition of the growth of E. coli (Escherichia coli; Diluted concentration 1/4): + | degree of inhibition of the growth of E. coli (Escherichia coli; Diluted concentration 1/8): + | degree of inhibition of the growth of E. coli (Escherichia coli; Diluted concentration 1): +++ | Nephrotoxicity [1]: + (+ means that albuminurea was observed in one to two animals of the total ten animals.) | Prolongation ratio (V-7 tumour): 230% | Solubility in Water (Solubility in water): good

O=NN(CCCl)C(=O)NCCCl [BCNU, 1,3-Bis(2-chloroethyl)-1-nitrosourea, reference compound]
Prolongation ratio (L-1210 leukemia): 204% | degree of inhibition of the growth of E. coli (Escherichia coli; Diluted concentration 1/2): + | degree of inhibition of the growth of E. coli (Escherichia coli; Diluted concentration 1/4): - | degree of inhibition of the growth of E. coli (Escherichia coli; Diluted concentration 1/8): - | degree of inhibition of the growth of E. coli (Escherichia coli; Diluted concentration 1): + | Nephrotoxicity [1]: +++ (+++ means that albuminurea was observed in eight to nine animals of the total ten animals.) | degree of albuminurea ([1]; result in words): severely | Prolongation ratio (V-7 tumour): 140% | Solubility in Water (Solubility in water): not soluble

O=NN(CCCl)C(=O)NCC(O)CO (centres unmarked) [3-[3-(2-Chloroethyl)-3-nitrosoureido]-1,2-propanediol]
Prolongation ratio (L-1210 leukemia): 420% | degree of inhibition of the growth of E. coli (Escherichia coli; Diluted concentration 1/2): ++ | degree of inhibition of the growth of E. coli (Escherichia coli; Diluted concentration 1/4): + | degree of inhibition of the growth of E. coli (Escherichia coli; Diluted concentration 1/8): + | degree of inhibition of the growth of E. coli (Escherichia coli; Diluted concentration 1): +++ | Nephrotoxicity [1]: + (+ means that albuminurea was observed in one to two animals of the total ten animals.) | Prolongation ratio (V-7 tumour): 215% | Solubility in Water (Solubility in water): good

CC(CO)(CO)NC(=O)N(CCCl)N=O [2-Methyl-2-[3-(2-chloroethyl)-3-nitrosoureido]-1,3-propanediol]
Prolongation ratio (L-1210 leukemia): 410% | degree of inhibition of the growth of E. coli (Escherichia coli; Diluted concentration 1/2): ++ | degree of inhibition of the growth of E. coli (Escherichia coli; Diluted concentration 1/4): ++ | degree of inhibition of the growth of E. coli (Escherichia coli; Diluted concentration 1/8): + | degree of inhibition of the growth of E. coli (Escherichia coli; Diluted concentration 1): +++ | Nephrotoxicity [1]: + (+ means that albuminurea was observed in one to two animals of the total ten animals.) | Prolongation ratio (V-7 tumour): 205% | Solubility in Water (Solubility in water): good
